pEC50, pIC50: −log10 of the molar value.
Legend:
[1] = molecular target: purified recombinant human GAC (GLS1) (Homo sapiens (Human), UniProt O94925); experiment: GLS1 Enzymatic Activity Assay (dual-coupled enzymatic assay, resorufin/Amplex UltraRed readout); type: biochemical;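 note: glutamate from GAC coupled via glutamate oxidase and peroxidase to resorufin, read as fluorescence (ex 530, em 590 nm) kinetically or at 20 min, four-parameter logistic IC50 fit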
A549 cells = experiment: Proliferation Assay (A549 viability, Cell Titer Fluor, 72 hours); type: cell-based; settings: Homo sapiens
How it was run: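 Cell Titer Fluor fluorescence after 72 h compound treatment (0.5% DMSO, 37 °C, 5% CO2) of A549 cells plated 24 h earlier at 1000/well. Four-parameter logistic fitting gave IC50.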

Chain of purified recombinant human GAC (GLS1) (O94925 other isoform, or with tags, fused parts or gaps): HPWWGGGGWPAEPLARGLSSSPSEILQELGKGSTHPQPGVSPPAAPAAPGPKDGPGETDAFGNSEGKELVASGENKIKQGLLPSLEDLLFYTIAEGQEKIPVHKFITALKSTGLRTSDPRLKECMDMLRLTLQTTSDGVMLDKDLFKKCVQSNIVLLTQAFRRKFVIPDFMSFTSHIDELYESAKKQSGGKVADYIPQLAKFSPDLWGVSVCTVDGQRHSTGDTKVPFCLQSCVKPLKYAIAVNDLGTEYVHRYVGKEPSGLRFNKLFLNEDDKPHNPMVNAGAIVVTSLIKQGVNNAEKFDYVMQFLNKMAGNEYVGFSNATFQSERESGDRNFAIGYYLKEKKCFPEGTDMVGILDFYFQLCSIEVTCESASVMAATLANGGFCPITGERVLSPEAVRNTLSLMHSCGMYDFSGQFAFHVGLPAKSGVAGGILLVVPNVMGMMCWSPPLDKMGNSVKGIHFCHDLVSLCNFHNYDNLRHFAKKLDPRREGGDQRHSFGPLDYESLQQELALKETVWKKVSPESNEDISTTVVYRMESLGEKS

Compound	pIC50 [1]	pEC50 (A549 cells; A549, 72 h)	pEC50 (A549 cells)
CNC(=O)c1cn(CC(F)CCc2nnc(NC(=O)Cc3ccccn3)s2)nn1 (centres unmarked) [Example 519, 1-(2-fluoro-4-{5-[2-(pyridin-2-yl)acetamido]-1,3,4-thiadiazol-2-yl}butyl)-N-methyl-1H-1,2,3-triazole-4-carboxamide]	6.30 to 7.00	5.30 to 6.30	
NC(=O)c1nnc(CCC(F)Cn2cc(C(=O)NCc3cccc(OC(F)(F)F)c3)nn2)s1 (centres unmarked) [Example 521, 5-{3-fluoro-4-[4-({[3-(trifluoromethoxy)phenyl]methyl}carbamoyl)-1H-1,2,3-triazol-1-yl]butyl}-1,3,4-thiadiazole-2-carboxamide]	6.30 to 7.00	6.30 to 7.00	
COCCNC(=O)c1nnc(CCC(F)Cn2cc(C(=O)NCc3cccc(OC(F)(F)F)c3)nn2)s1 (centres unmarked) [Example 523, 5-{3-fluoro-4-[4-({[3-(trifluoromethoxy)phenyl]methyl}carbamoyl)-1H-1,2,3-triazol-1-yl]butyl}-N-(2-methoxyethyl)-1,3,4-thiadiazole-2-carboxamide]	6.30 to 7.00	5.30 to 6.30	
O=C(Cc1cccc(OC(F)(F)F)c1)Nc1nnc(CCC(F)Cn2cc(C(=O)NCC(F)(F)F)nn2)s1 (centres unmarked) [Example 536, 1-[2-fluoro-4-(5-{2-[3-(trifluoromethoxy)phenyl]acetamido}-1,3,4-thiadiazol-2-yl)butyl]-N-(2,2,2-trifluoroethyl)-1H-1,2,3-triazole-4-carboxamide]	> 7.00	6.30 to 7.00	
O=C(Cc1cccc(OC(F)(F)F)c1)Nc1nnc(CCC(F)Cn2cc(C(=O)NCc3ncccc3F)nn2)s1 (centres unmarked) [Example 537, 1-[2-fluoro-4-(5-{2-[3-(trifluoromethoxy)phenyl]acetamido}-1,3,4-thiadiazol-2-yl)butyl]-N-[(3-fluoropyridin-2-yl)methyl]-1H-1,2,3-triazole-4-carboxamide]	> 7.00	6.30 to 7.00	
CNC(=O)c1cn(CC(F)CCn2cc(NC(=O)Cc3cccc(OC(F)(F)F)c3)nn2)nn1 (centres unmarked) [Example 538, 1-[2-fluoro-4-(4-{2-[3-(trifluoromethoxy)phenyl]acetamido}-1H-1,2,3-triazol-1-yl)butyl]-N-methyl-1H-1,2,3-triazole-4-carboxamide]	> 7.00	6.30 to 7.00	
CNC(=O)c1cn(CC(F)CCn2cc(NC(=O)Cc3cc(OC(F)(F)F)ccc3F)nn2)nn1 (centres unmarked) [Example 539, 1-[2-fluoro-4-(4-{2-[2-fluoro-5-(trifluoromethoxy)phenyl]acetamido}-1H-1,2,3-triazol-1-yl)butyl]-N-methyl-1H-1,2,3-triazole-4-carboxamide]	> 7.00	6.30 to 7.00	
O=C(Cc1ccccn1)Nc1nnc(CCC(F)Cn2cc(C(=O)NCc3cc(C(F)(F)F)ccn3)nn2)s1 (centres unmarked) [Example 540, 1-(2-fluoro-4-(5-(2-(pyridin-2-yl)acetamido)-1,3,4-thiadiazol-2-yl)butyl)-N-((4-(trifluoromethyl)pyridin-2-yl)methyl)-1H-1,2,3-triazole-4-carboxamide]	> 7.00		> 7.00
CNC(=O)c1cn(CCCCc2ccc(NC(=O)Cc3cccc(Br)c3)nn2)nn1 [Example 542, 1-(4-{6-[2-(3-bromophenyl)acetamido]pyridazin-3-yl}butyl)-N-methyl-1H-1,2,3-triazole-4-carboxamide]	> 7.00	6.30 to 7.00	
CNC(=O)c1cn(CCCCc2ccc(NC(=O)Cc3cccc(S(C)(=O)=O)c3)nn2)nn1 [Example 543, 1-(4-{6-[2-(3-methanesulfonylphenyl)acetamido]pyridazin-3-yl}butyl)-N-methyl-1H-1,2,3-triazole-4-carboxamide]	> 7.00	5.30 to 6.30	
CNC(=O)c1cn(CCCCc2ccc(NC(=O)Cc3cccc(-c4ccccn4)c3)nn2)nn1 [Example 545, N-methyl-1-[4-(6-{2-[3-(pyridin-2-yl)phenyl]acetamido}pyridazin-3-yl)butyl]-1H-1,2,3-triazole-4-carboxamide]	> 7.00	6.30 to 7.00	
CNC(=O)c1cn(CCCCc2ccc(NC(=O)CC3CCOCC3)nn2)nn1 [Example 547, N-methyl-1-(4-{6-[2-(oxan-4-yl)acetamido]pyridazin-3-yl}butyl)-1H-1,2,3-triazole-4-carboxamide]	6.30 to 7.00	5.30 to 6.30	
CNC(=O)c1cn(CCCCc2ccc(NC(=O)CC3CCCC3)nn2)nn1 [Example 548, 1-{4-[6-(2-cyclopentylacetamido)pyridazin-3-yl]butyl}-N-methyl-1H-1,2,3-triazole-4-carboxamide]	6.30 to 7.00	5.30 to 6.30	
O=C(Cc1cccc(OC(F)(F)F)c1)Nc1ccc(CCCCn2cc(C(=O)NCC3COC3)nn2)nn1 [Example 550, N-(oxetan-3-ylmethyl)-1-[4-(6-{2-[3-(trifluoromethoxy)phenyl]acetamido}pyridazin-3-yl)butyl]-1H-1,2,3-triazole-4-carboxamide]	> 7.00	6.30 to 7.00	
O=C(Cc1cccc(OC(F)(F)F)c1)Nc1ccc(CCCCn2cc(C(=O)NCC(CO)CO)nn2)nn1 [Example 552, N-[3-hydroxy-2-(hydroxymethyl)propyl]-1-[4-(6-{2-[3-(trifluoromethoxy)phenyl]acetamido}pyridazin-3-yl)butyl]-1H-1,2,3-triazole-4-carboxamide]	5.30 to 6.30	< 5.30	
O=C(Cc1ccccn1)Nc1nnc(CCCCn2cc(C(=O)NCc3cccc(OC(F)(F)F)c3)nn2)s1 [Example 553, 1-(4-{5-[2-(pyridin-2-yl)acetamido]-1,3,4-thiadiazol-2-yl}butyl)-N-{[3-(trifluoromethoxy)phenyl]methyl}-1H-1,2,3-triazole-4-carboxamide]	> 7.00	> 7.00	
O=C(Cc1ccccn1)Nc1nnc(CCCCn2cc(C(=O)NCc3cc(OC(F)(F)F)ccc3F)nn2)s1 [Example 554, N-{[2-fluoro-5-(trifluoromethoxy)phenyl]methyl}-1-(4-{5-[2-(pyridin-2-yl)acetamido]-1,3,4-thiadiazol-2-yl}butyl)-1H-1,2,3-triazole-4-carboxamide]	> 7.00	> 7.00	
CNC(=O)c1nnc(CCC(F)Cn2cc(C(=O)NCc3cc(OC(F)(F)F)ccc3F)nn2)s1 (centres unmarked) [Example 555, 5-{3-fluoro-4-[4-({[2-fluoro-5-(trifluoromethoxy)phenyl]methyl}carbamoyl)-1H-1,2,3-triazol-1-yl]butyl}-N-methyl-1,3,4-thiadiazole-2-carboxamide]	> 7.00	6.30 to 7.00	

The next lines start with results.

pIC50 [1]	pEC50 (A549 cells; A549, 72 h)	Compound	pEC50 (A549 cells)
> 7.00	> 7.00	O=C(NCc1cc(C(F)(F)F)ccn1)c1cn(CC(F)CCc2nnc(C(=O)NCc3cc(C(F)(F)F)ccn3)s2)nn1 (centres unmarked) [Example 520, 5-{3-fluoro-4-[4-({[4-(trifluoromethyl)pyridin-2-yl]methyl}carbamoyl)-1H-1,2,3-triazol-1-yl]butyl}-N-{[4-(trifluoromethyl)pyridin-2-yl]methyl}-1,3,4-thiadiazole-2-carboxamide]	
> 7.00	6.30 to 7.00	CCNC(=O)c1nnc(CCC(F)Cn2cc(C(=O)NCc3cccc(OC(F)(F)F)c3)nn2)s1 (centres unmarked) [Example 522, N-ethyl-5-{3-fluoro-4-[4-({[3-(trifluoromethoxy)phenyl]methyl}carbamoyl)-1H-1,2,3-triazol-1-yl]butyl}-1,3,4-thiadiazole-2-carboxamide]	
> 7.00	6.30 to 7.00	CNC(=O)c1cn(CCC(F)Cn2cc(NC(=O)Cc3cccc(OC(F)(F)F)c3)nn2)nn1 (centres unmarked) [Example 524, 1-[3-fluoro-4-(4-{2-[3-(trifluoromethoxy)phenyl]acetamido}-1H-1,2,3-triazol-1-yl)butyl]-N-methyl-1H-1,2,3-triazole-4-carboxamide]	
> 7.00	6.30 to 7.00	CNC(=O)c1cn(CCC(F)Cn2cc(NC(=O)Cc3cc(OC(F)(F)F)ccc3F)nn2)nn1 (centres unmarked) [Example 525, 1-[3-fluoro-4-(4-{2-[2-fluoro-5-(trifluoromethoxy)phenyl]acetamido}-1H-1,2,3-triazol-1-yl)butyl]-N-methyl-1H-1,2,3-triazole-4-carboxamide]	
> 7.00	5.30 to 6.30	NC(=O)c1cn(CC(F)CCc2nnc(NC(=O)Cc3cccc(OC(F)(F)F)c3)s2)nn1 (centres unmarked) [Example 530, 1-[2-fluoro-4-(5-{2-[3-(trifluoromethoxy)phenyl]acetamido}-1,3,4-thiadiazol-2-yl)butyl]-1H-1,2,3-triazole-4-carboxamide]	
> 7.00	6.30 to 7.00	CCNC(=O)c1cn(CC(F)CCc2nnc(NC(=O)Cc3cccc(OC(F)(F)F)c3)s2)nn1 (centres unmarked) [Example 531, N-ethyl-1-[2-fluoro-4-(5-{2-[3-(trifluoromethoxy)phenyl]acetamido}-1,3,4-thiadiazol-2-yl)butyl]-1H-1,2,3-triazole-4-carboxamide]	
> 7.00	6.30 to 7.00	COCCNC(=O)c1cn(CC(F)CCc2nnc(NC(=O)Cc3cccc(OC(F)(F)F)c3)s2)nn1 (centres unmarked) [Example 532, 1-[2-fluoro-4-(5-{2-[3-(trifluoromethoxy)phenyl]acetamido}-1,3,4-thiadiazol-2-yl)butyl]-N-(2-methoxyethyl)-1H-1,2,3-triazole-4-carboxamide]	
> 7.00	> 7.00	O=C(Cc1cccc(OC(F)(F)F)c1)Nc1nnc(CCC(F)Cn2cc(C(=O)NCc3ccccn3)nn2)s1 (centres unmarked) [Example 533, 1-[2-fluoro-4-(5-{2-[3-(trifluoromethoxy)phenyl]acetamido}-1,3,4-thiadiazol-2-yl)butyl]-N-(pyridin-2-ylmethyl)-1H-1,2,3-triazole-4-carboxamide]	
> 7.00	6.30 to 7.00	O=C(Cc1cccc(OC(F)(F)F)c1)Nc1nnc(CCC(F)Cn2cc(C(=O)NC3CC3)nn2)s1 (centres unmarked) [Example 534, N-cyclopropyl-1-[2-fluoro-4-(5-{2-[3-(trifluoromethoxy)phenyl]acetamido}-1,3,4-thiadiazol-2-yl)butyl]-1H-1,2,3-triazole-4-carboxamide]	
> 7.00	6.30 to 7.00	O=C(Cc1cccc(OC(F)(F)F)c1)Nc1nnc(CCC(F)Cn2cc(C(=O)NCC3CC3)nn2)s1 (centres unmarked) [Example 535, N-(cyclopropylmethyl)-1-[2-fluoro-4-(5-{2-[3-(trifluoromethoxy)phenyl]acetamido}-1,3,4-thiadiazol-2-yl)butyl]-1H-1,2,3-triazole-4-carboxamide]	

Reference: US10344025B2, “GLS1 inhibitors for treating disease” (Board of Regents, The University of Texas System, priority 2014, dated 2019)
